{"source": "BindingDB's records for doi:10.7270/Q2JQ0ZGP", "about": "(Nmmlsc, 2010)", "target": "60S ribosomal protein L19-A (Saccharomyces cerevisiae (strain ATCC 204508 / S288c), UniProt P0CX82)", "sequence (P0CX82 whole entry, the tested form may be a part)": "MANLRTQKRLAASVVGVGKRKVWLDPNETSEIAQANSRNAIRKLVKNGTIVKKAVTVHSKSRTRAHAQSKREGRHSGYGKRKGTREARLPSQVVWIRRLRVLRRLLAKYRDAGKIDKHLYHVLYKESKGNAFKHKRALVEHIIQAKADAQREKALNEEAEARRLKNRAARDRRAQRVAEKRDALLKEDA", "test": "RPL19A GFP fusion protein, TOR pathway, Saccharomyces cerevisiae, dose response (AID 2740)", "data": [{"smiles": "O=C1NC(=S)NC(=O)C1=Cc1ccc2c(c1)CCN2CCCCl", "note": "[5-[[1-(3-chloropropyl)-2,3-dihydroindol-5-yl]methylidene]-2-sulfanylidene-1,3-diazinane-4,6-dione]", "values": [{"measurement": "EC50", "value": "> 33", "unit": "µM"}]}, {"smiles": "CS(=O)(=O)c1nc(-c2cccs2)cc(C(F)(F)F)n1", "note": "[MLS000044645]", "values": [{"measurement": "EC50", "value": "> 33", "unit": "µM"}]}]}
